Test results published in US20250084092A1, “ANNULATED PYRIDAZINE COMPOUND” (Nico Therapeutics, Inc., priority 2021, published 2025).
pIC50: −log10 of the molar value. Counter-ions that a name gives are not always drawn.

target: T1, NLRP3 inflammasome (Homo sapiens, UniProt Q96P20); assay: THP-1 IL-1β production inhibition test; type: cell-based; details: PMA-treated THP-1 cells, LPS 50 ng/mL + ATP 5 mM, 2 hours, IL-1β in supernatant by ELISA
T1 construct: endogenous in cells; host or cells: THP-1 cells (PMA-differentiated, stimulated with LPS and ATP)
Method: PMA (phorbol myristate acetate, SIGMA, P1585) was added to THP-1 cells in an amount of 50 ng/mL to culture the cells for 2 days at 37° C. […] LPS (Lipopolysaccharide, SIMGA, L2880) and ATP (Adenosine triphosphate, SIGMA, A2383) were added so that final concentrations become 50 ng/mL and 5 mM, respectively, followed by culturing at 37° C. for 2 hours. The supernatants were collected to measure the concentrations of IL-1β by ELISA (DuoSet ELISA human IL-1β, R&D Systems, DY201). The IL-1β concentrations were plotted against log concentrations of test compounds, and an IC50 value was calculated by sigmoid Emax model nonlinear regression analysis.

T1 sequence (Q96P20 whole entry): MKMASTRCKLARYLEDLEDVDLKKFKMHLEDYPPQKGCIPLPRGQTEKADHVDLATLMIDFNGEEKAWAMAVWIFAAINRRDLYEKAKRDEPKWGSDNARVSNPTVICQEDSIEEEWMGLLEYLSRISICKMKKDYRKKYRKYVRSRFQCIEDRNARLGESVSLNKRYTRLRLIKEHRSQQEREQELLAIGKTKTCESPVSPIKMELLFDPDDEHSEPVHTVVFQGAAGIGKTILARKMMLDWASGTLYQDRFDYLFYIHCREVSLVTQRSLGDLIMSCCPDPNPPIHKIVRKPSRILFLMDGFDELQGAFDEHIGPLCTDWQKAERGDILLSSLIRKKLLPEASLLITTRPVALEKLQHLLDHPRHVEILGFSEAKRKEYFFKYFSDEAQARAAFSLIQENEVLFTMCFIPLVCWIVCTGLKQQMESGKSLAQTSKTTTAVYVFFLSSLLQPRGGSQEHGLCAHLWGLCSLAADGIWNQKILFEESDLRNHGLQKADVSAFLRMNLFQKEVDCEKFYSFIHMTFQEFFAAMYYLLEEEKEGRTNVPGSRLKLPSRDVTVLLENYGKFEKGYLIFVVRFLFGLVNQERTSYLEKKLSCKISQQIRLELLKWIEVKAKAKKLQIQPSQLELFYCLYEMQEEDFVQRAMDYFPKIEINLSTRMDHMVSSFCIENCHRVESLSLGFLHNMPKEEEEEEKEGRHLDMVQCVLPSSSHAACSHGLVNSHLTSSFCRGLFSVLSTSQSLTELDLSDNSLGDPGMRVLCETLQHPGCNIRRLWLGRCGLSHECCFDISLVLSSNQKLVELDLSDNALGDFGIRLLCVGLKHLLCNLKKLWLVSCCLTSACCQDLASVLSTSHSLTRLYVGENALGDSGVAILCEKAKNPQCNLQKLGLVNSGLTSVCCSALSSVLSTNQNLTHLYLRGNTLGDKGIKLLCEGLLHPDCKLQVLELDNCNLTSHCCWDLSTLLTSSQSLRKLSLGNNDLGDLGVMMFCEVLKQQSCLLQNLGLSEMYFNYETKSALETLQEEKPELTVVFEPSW

**Q.** `CS(=O)(=O)N1CCc2c(-c3ccc(C(F)(F)F)cc3O)nnc(N[C@@H]3CCCC[C@H]3O)c2C1` [Example 93, 2-[4-{[(1R,2R)-2-hydroxycyclohexyl]amino}-6-(methanesulfonyl)-5,6,7,8-tetrahydropyrido[3,4-d]pyridazin-1-yl]-5-(trifluoromethyl)phenol] was tested. Which pIC50 did it give?
**A.** 6.70

**Q.** How did the pIC50 turn out when `Oc1cc(C(F)(F)F)ccc1-c1nnc(N[C@@H]2CCCC[C@H]2O)c2ccccc12` [Example 15] was run?
**A.** 8.55

**Q.** How did the pIC50 turn out when `CN1CCC[C@@H](Oc2nnc(-c3ccc(C(F)(F)F)cc3O)c3ccccc23)C1` [Example 67] was run?
**A.** 7.89

**Q.** How did the pIC50 turn out when `Oc1cc(Cl)ccc1-c1nnc(N[C@@H]2CCCC[C@H]2O)c2c1CCCC2` [Example 25] was run?
**A.** 8.34

**Q.** `Oc1cc(C(F)(F)F)ccc1-c1nnc(N[C@@H]2CCCC[C@H]2O)c2sccc12` [Example 94, 2-(7-{[(1R,2R)-2-hydroxycyclohexyl]amino}thieno[2,3-d]pyridazin-4-yl)-5-(trifluoromethyl)phenol] was tested. Which pIC50 did it give?
**A.** 8.29

**Q.** `Oc1cc(OC(F)(F)F)ccc1-c1nnc(N[C@@H]2CCC[C@H](O)C2)c2c1CCOC2` [Example 106] was tested. Which pIC50 did it give?
**A.** 8.32

**Q.** With `Oc1cc(OC(F)(F)F)ccc1-c1nnc(N[C@@H]2CCCC[C@H]2O)c2c1CCOC2` [Example 135, 2-(4-{[(1R,2R)-2-hydroxycyclohexyl]amino}-7,8-dihydro-5H-pyrano[3,4-d]pyridazin-1-yl)-5-(trifluoromethoxy)phenol monohydrochloride] as the molecule, how does the pIC50 read?
**A.** 8.54

**Q.** How did the pIC50 turn out when `Oc1cc(C(F)(F)F)ccc1-c1nnc(N[C@@H]2CCCC[C@H]2O)c2c1CCCCC2` [Example 34] was run?
**A.** 8.41

**Q.** With `Oc1cc(C(F)(F)F)ccc1-c1nnc(N[C@@H]2CCCC[C@@H]2O)c2c1COCC2` [4(2), 2-(1-{[(1R,2S)-2-hydroxycyclohexyl]amino}-7,8-dihydro-5H-pyrano[3,4-d]pyridazin-4-yl)-5-(trifluoromethyl)phenol] as the molecule, how does the pIC50 read?
**A.** 7.82

**Q.** With `N#C[C@@H]1CCCC[C@H]1Nc1nnc(-c2ccc(C(F)(F)F)cc2O)c2c1CCOC2` [72(2)] as the molecule, how does the pIC50 read?
**A.** 7.85

**Q.** `CC(C)(O)CNc1nnc(-c2ccc(C(F)(F)F)cc2O)c2c1CCC2` [Example 21] was tested. Which pIC50 did it give?
**A.** 7.09

**Q.** With `CC(=O)N1CCc2c(-c3ccc(C(F)(F)F)cc3C(F)(F)F)nnc(NC[C@@H](C)O)c2C1` [Example 79, 1-{1-[2,4-bis(trifluoromethyl)phenyl]-4-{[(2R)-2-hydroxypropyl]amino}-7,8-dihydropyrido[3,4-d]pyridazin-6(5H)-yl}ethan-1-one] as the molecule, how does the pIC50 read?
**A.** 5.32

**Q.** How did the pIC50 turn out when `CN1CCC[C@@H](Nc2nnc(-c3ccc(OC(F)F)cc3O)c3c2COCC3)C1` [Example 136, 5-(difluoromethoxy)-2-(4-{[(3R)-1-methylpiperidin-3-yl]amino}-7,8-dihydro-5H-pyrano[3,4-d]pyridazin-1-yl)phenol dihydrochloride] was run?
**A.** 8.66

**Q.** How did the pIC50 turn out when `Oc1cc(C(F)F)ccc1-c1nnc(N[C@@H]2CCCC[C@H]2O)c2c1CCCC2` [Example 84] was run?
**A.** 7.74

**Q.** With `Oc1cc(C(F)(F)F)ccc1-c1nnc(N[C@@H]2CCCN(C3CCC3)C2)c2c1CCCC2` [Example 71] as the molecule, how does the pIC50 read?
**A.** 6.82

**Q.** How did the pIC50 turn out when `Oc1cc(OC(F)(F)F)ccc1-c1nnc(N[C@@H]2CCCC[C@H]2O)c2c1CCOCC2` [Example 68] was run?
**A.** 7.96

**Q.** How did the pIC50 turn out when `CC(=O)NCCCCOc1nnc(-c2ccc(C(F)(F)F)cc2O)c2ccccc12` [Example 81, N-[4-({4-[2-hydroxy-4-(trifluoromethyl)phenyl]phthalazin-1-yl}oxy)butyl]acetamide] was run?
**A.** 7.48

**Q.** With `CN1CCC[C@@H](Nc2nnc(-c3ccc(Cl)cc3O)c3c2COCC3)C1` [Example 109] as the molecule, how does the pIC50 read?
**A.** 8.82

**Q.** `CC(=O)N1CCC[C@@H](Nc2nnc(-c3ccc(C(F)(F)F)cc3O)c3c2CSC3)C1` [Example 119] was tested. Which pIC50 did it give?
**A.** 8.22

**Q.** `C[C@@H](O)CNc1nnc(-c2ccc(C(F)(F)F)cc2C(F)(F)F)c2c1CCC2` [Example 8] was tested. Which pIC50 did it give?
**A.** 6.68

**Q.** With `O=S1(=O)CCC(Oc2nnc(-c3ccc(C(F)(F)F)cc3O)c3ccccc23)CC1` [Example 10] as the molecule, how does the pIC50 read?
**A.** 7.62

**Q.** `O=C1NCC[C@@H]1Nc1nnc(-c2ccc(C(F)(F)F)cc2O)c2c1CCCC2` [Example 50] was tested. Which pIC50 did it give?
**A.** 8.09

**Q.** `Oc1cc(C(F)(F)F)ccc1-c1nnc(N[C@@H]2CCCC[C@H]2O)c2c1CCOC2` [Example 133, 2-(4-{[(1R,2R)-2-hydroxycyclohexyl]amino}-7,8-dihydro-5H-pyrano[3,4-d]pyridazin-1-yl)-5-(trifluoromethyl)phenol monohydrochloride] was tested. Which pIC50 did it give?
**A.** 8.89

**Q.** With `C[C@@]1(O)CCCC[C@H]1Nc1nnc(-c2ccc(OC(F)F)cc2O)c2c1CCCC2` [Example 89] as the molecule, how does the pIC50 read?
**A.** 7.51

**Q.** How did the pIC50 turn out when `CC(=O)N1CCc2c(-c3ccc(C(F)(F)F)cc3O)nnc(N[C@@H]3CCCC[C@H]3O)c2C1` [Example 92, 1-[4-{[(1R,2R)-2-hydroxycyclohexyl]amino}-1-[2-hydroxy-4-(trifluoromethyl)phenyl]-7,8-dihydropyrido[3,4-d]pyridazin-6(5H)-yl]ethan-1-one] was run?
**A.** 7.33

**Q.** With `C[C@]1(O)C[C@@H](Nc2nnc(-c3ccc(OC(F)(F)F)cc3O)c3c2CCOC3)C1` [57(2)] as the molecule, how does the pIC50 read?
**A.** 7.03

**Q.** `CN1CCC[C@@H](Nc2nnc(-c3ccc(OC(F)F)cc3O)c3c2CCOC3)C1` [Example 120] was tested. Which pIC50 did it give?
**A.** 9.00

**Q.** `CN1CCC[C@@H](Nc2nnc(-c3ccc(C(F)F)cc3O)c3c2COCC3)C1` [Example 113] was tested. Which pIC50 did it give?
**A.** 8.92

**Q.** With `Oc1cc(C(F)(F)F)ccc1-c1nnc(NC[C@H]2CCCO2)c2ccccc12` [Example 14] as the molecule, how does the pIC50 read?
**A.** 8.12

**Q.** How did the pIC50 turn out when `CC(=O)NCCCCNc1nnc(-c2ccc(C(F)(F)F)cc2O)c2c1COCC2` [Example 118] was run?
**A.** 8.32

**Q.** How did the pIC50 turn out when `CC(=O)N1CCC[C@@H](Nc2nnc(-c3ccc(C(F)(F)F)cc3O)c3ccccc23)C1` [Example 63] was run?
**A.** 8.03

**Q.** How did the pIC50 turn out when `C[C@]1(O)C[C@@H](Nc2nnc(-c3ccc(OC(F)(F)F)cc3O)c3c2COCC3)C1` [57(1)] was run?
**A.** 7.72

**Q.** How did the pIC50 turn out when `Oc1cc(C(F)F)ccc1-c1nnc(N[C@@H]2CCCC[C@H]2O)c2c1CCOC2` [Example 87] was run?
**A.** 8.19

**Q.** `COc1ccc(-c2nnc(N[C@@H]3CCOC[C@H]3O)c3c2CCCC3)c(O)c1` [Example 38] was tested. Which pIC50 did it give?
**A.** 7.27

**Q.** `C[C@@H](O)CNc1nnc(-c2ccc(C(F)(F)F)cc2C(F)(F)F)c2c1CN(C)CC2` [Example 74] was tested. Which pIC50 did it give?
**A.** 5.85

**Q.** With `[O-][S+]1Cc2c(N[C@@H]3CCCC[C@H]3O)nnc(-c3ccc(C(F)(F)F)cc3O)c2C1` (stereo partly shown) [131(2)] as the molecule, how does the pIC50 read?
**A.** 7.10

**Q.** `Cc1ccc(-c2nnc(N[C@@H]3CCOC[C@H]3O)c3c2CCCC3)c(O)c1` [Example 36] was tested. Which pIC50 did it give?
**A.** 7.49

**Q.** With `Oc1cc(C(F)(F)F)ccc1-c1nnc(N[C@@H]2CCCC[C@H]2O)c2c1CCCC2` [Example 134, 2-(4-{[(1R,2R)-2-hydroxycyclohexyl]amino}-5,6,7,8-tetrahydrophthalazin-1-yl)-5-(trifluoromethyl)phenol monohydrochloride] as the molecule, how does the pIC50 read?
**A.** 8.34

**Q.** `C[C@]1(O)C[C@@H](Nc2nnc(-c3ccc(C(F)(F)F)cc3O)c3c2CCCC3)C1` [Example 29] was tested. Which pIC50 did it give?
**A.** 7.74

**Q.** With `Oc1cc(C(F)(F)F)ccc1-c1nnc(N[C@@H]2CCC[C@H](O)C2)c2c1CCOC2` [Example 104] as the molecule, how does the pIC50 read?
**A.** 8.46

**Q.** `Oc1cc(Cl)ccc1-c1nnc(N[C@@H]2CCOC[C@H]2O)c2c1CCCC2` [Example 39] was tested. Which pIC50 did it give?
**A.** 7.72

**Q.** With `Cc1ccc(-c2nnc(N[C@@H]3CCOC[C@H]3O)c3c2CCCCC3)c(O)c1` [Example 46] as the molecule, how does the pIC50 read?
**A.** 7.96

**Q.** With `Oc1cc(C(F)(F)F)ccc1-c1nnc(N[C@@H]2CCCC[C@H]2O)c2c1CNCC2` [Example 91] as the molecule, how does the pIC50 read?
**A.** 6.25

**Q.** `COc1ccc(-c2nnc(NCCCO)c3c2CCCC3)cc1` [Example 7] was tested. Which pIC50 did it give?
**A.** 5.07

**Q.** `C[C@@H](O)CCc1nnc(-c2ccc(C(F)(F)F)cc2O)c2c1CCC2` [Example 22] was tested. Which pIC50 did it give?
**A.** 7.16

**Q.** How did the pIC50 turn out when `C[C@@]1(O)CCCC[C@H]1Nc1nnc(-c2ccc(C(F)(F)F)cc2O)c2c1CCCC2` [Example 53] was run?
**A.** 7.82

**Q.** `CC1(C)SCc2c(N[C@@H]3CCCN(CC(F)F)C3)nnc(-c3ccc(C(F)(F)F)cc3O)c21` [Example 132, 2-(4-{[(3R)-1-(2,2-difluoroethyl)piperidin-3-yl]amino}-7,7-dimethyl-5,7-dihydrothieno[3,4-d]pyridazin-1-yl)-5-(trifluoromethyl)phenol] was tested. Which pIC50 did it give?
**A.** 7.02

**Q.** How did the pIC50 turn out when `Oc1cc(C(F)(F)F)ccc1-c1nnc(N[C@H]2CCCC[C@@H]2O)c2c1COCC2` [66(1)] was run?
**A.** 6.00

**Q.** `Oc1cc(C(F)(F)F)ccc1-c1nnc(N[C@@H]2CCCC[C@H]2O)c2c1CCCO2` [Example 41] was tested. Which pIC50 did it give?
**A.** 7.40

**Q.** `Oc1cc(C(F)(F)F)ccc1-c1nnc(N[C@H]2CCCC[C@@H]2O)c2c1CCOC2` [66(2)] was tested. Which pIC50 did it give?
**A.** 6.74

**Q.** How did the pIC50 turn out when `Oc1cc(C(F)(F)F)ccc1-c1nnc(N[C@@H]2CCOC[C@H]2O)c2c1CCCC2` [Example 35] was run?
**A.** 7.80

**Q.** `C[C@@H](O)CNc1nnc(-c2ccc(C(F)(F)F)cc2O)c2c1[C@H]1CC[C@@H]2CC1` [Example 24] was tested. Which pIC50 did it give?
**A.** 7.13

**Q.** `CN1CCC[C@@H](Nc2nnc(-c3ccc(C(F)(F)F)cc3O)c3c2CSC3(C)C)C1` [Example 123] was tested. Which pIC50 did it give?
**A.** 7.33

**Q.** With `Oc1cc(C(F)(F)F)ccc1-c1nnc(N[C@@H]2CCOC[C@H]2O)c2c1CCCCC2` [Example 44] as the molecule, how does the pIC50 read?
**A.** 8.17

**Q.** With `C[C@]1(O)C[C@@H](Nc2nnc(-c3ccc(C(F)(F)F)cc3O)c3c2CCCCC3)C1` [Example 48] as the molecule, how does the pIC50 read?
**A.** 7.44

**Q.** How did the pIC50 turn out when `C[C@@H](O)CNc1nnc(-c2ccc(C(F)(F)F)cc2O)c2c1CCC2` [Example 18] was run?
**A.** 7.47

**Q.** With `Oc1cc(C(F)(F)F)ccc1-c1nnc(N[C@@H]2CCOC[C@H]2O)c2c1COCC2` [101(2)] as the molecule, how does the pIC50 read?
**A.** 8.07

**Q.** `CCN1CCc2c(-c3ccc(C(F)(F)F)cc3O)nnc(N[C@@H]3CCCC[C@H]3O)c2C1` [Example 78] was tested. Which pIC50 did it give?
**A.** 7.27

**Q.** How did the pIC50 turn out when `COc1ccc(-c2nnc(N[C@@H]3CCCN(C)C3)c3c2CCOC3)c(O)c1` [Example 110] was run?
**A.** 8.85

**Q.** With `Oc1cc(C2CC2)ccc1-c1nnc(N[C@@H]2CCCC[C@H]2O)c2c1CCCC2` [Example 51] as the molecule, how does the pIC50 read?
**A.** 7.89

**Q.** `Oc1cc(C(F)(F)F)ccc1-c1nnc(NCC2(O)CCC2)c2ccccc12` [Example 12] was tested. Which pIC50 did it give?
**A.** 7.24
